Results reported in US7402314B2, “In vivo activation of tumor-specific cytotoxic T cells” (The Scripps Research Institute, priority 1995, dated 2008).
“And” between values parts separate entries of the source, which are not always exact repeats. Identical values can stand only once.

Experiments:
A2.1/K^b-Tg mice = experiment: Peptide priming of A2.1/K^b-Tg mice, lytic activity of peptide-specific CTL; format: in vivo; set-up: Lytic Activity by Peptide-Specific CTL After Priming of A2.1/K^b-Tg Mice [Specific ^51Cr release (%)]: concentration or dose not given beside the values; settings: for Lytic Activity by Peptide-Specific CTL After Priming of A2.1/K^b-Tg Mice [Specific ^51Cr release (%)]: E:T ratio of 60:1, peptide-pulsed T2A2/K^b targets, highest of at least three individual mice; for A2.1/K^b-restricted peptide-specific CTL response of A2.1/K^b-Tg mice (in words): mouse, in vivo
HLA-A2.1 = HLA-A2.1 (Homo sapiens, UniProt P04439, D140Y/D185E/D98H/E176V/E277Q/G131W/G231S/I119V/I121R/I166T/I218V/L300P/L318F/N151K/N90K/P208A/P217A/Q86G/Q94H/R138H/R169H/T345S); experiment: Competition assay of peptide binding to HLA-A2.1 (inhibition of M1 58-66 binding, clone 12 lysis of EA2 targets)
Saos-2/175 = experiment: 5-hour ^51Cr release assay, endogenously synthesized p53 epitopes (Example 4); format: cell-based, human; settings: relative to p53-deficient Saos-2
CASKI = experiment: Cytotoxicity assay, killing of tumors (Table 7); format: cell-based, human
Description: (§1) One hundred and six (106) target cells were incubated at 37° C. with […] of sodium ^51Cr chromate for 90 minutes in the presence or absence of specific peptide. Cells were washed three times and resuspended in 5% RPMI. For the assay, 104 ^51Cr-labeled target cells were incubated with different concentrations of effector cells in a final volume of […] in U-bottomed 96-well plates. Supernatants were removed after 4-7 hrs at 37° C., and the percent specific lysis was determined by the following formula: […]
(§2) Tumor cells were preincubated for 24 hours prior to the assay in media supplemented with γ-interferon (γ-IFN, 20 ng/ml) plus tumor necrosis factor-α (TNF-α, 3 ng/ml). It is known that such pretreatment of tumor cells increases the expression of MHC I and adhesion molecules such as ICAM I on the surface of the cell thus enhancing their sensitivity to lysis by CTL. (See, e.g., Fisk, et al., Lympho. & Cylokine Res. 13: 125-131 (1994); Fady, et al., Cancer Immunol. Immunother. 37: 329-336 (1993).)

Hep-G2 = experiment: Cytotoxicity assay, killing of tumors (Table 7); format: cell-based, human
Description: as §1, §2

JY = experiment: Cytotoxicity assay, killing of tumors (Table 7); format: cell-based, human
Description: as §1, §2

LG-2 = experiment: Cytotoxicity assay, killing of tumors (Table 7); format: cell-based, human
Description: as §1, §2

MALME-3M = experiment: Cytotoxicity assay, killing of tumors (Table 7); format: cell-based, human
Description: as §1, §2

MCF-7 = experiment: Cytotoxicity assay, killing of tumors (Table 7); format: cell-based, human
Description: as §1, §2

MDA.MB435 = experiment: Cytotoxicity assay, killing of tumors (Table 7); format: cell-based, human
Description: as §1, §2

OVCAR-5 = experiment: Cytotoxicity assay, killing of tumors (Table 7); format: cell-based, human
Description: as §1, §2

SAOS.175 = experiment: Cytotoxicity assay, killing of tumors (Table 7); format: cell-based, human
Description: as §1, §2

SKMEL-5 = experiment: Cytotoxicity assay, killing of tumors (Table 7); format: cell-based, human
Description: as §1, §2

ST486 = experiment: Cytotoxicity assay, killing of tumors (Table 7); format: cell-based, human
Description: as §1, §2

SV80 = experiment: Cytotoxicity assay, killing of tumors (Table 7); format: cell-based, human
Description: as §1, §2

SW480 = experiment: Cytotoxicity assay, killing of tumors (Table 7); format: cell-based, human
Description: as §1, §2

T98G = experiment: Cytotoxicity assay, killing of tumors (Table 7); format: cell-based, human
Description: as §1, §2

U2-OS = experiment: Cytotoxicity assay, killing of tumors (Table 7); format: cell-based, human
Description: as §1, §2

U87G = experiment: Cytotoxicity assay, killing of tumors (Table 7); format: cell-based, human
Description: as §1, §2

Sequence | Lytic Activity by Peptide-Specific CTL After Priming of A2.1/K^b-Tg Mice [Specific ^51Cr release (%)] (A2.1/K^b-Tg mice) [%] | A2.1/K^b-restricted peptide-specific CTL response of A2.1/K^b-Tg mice (in words) (A2.1/K^b-Tg mice) | further results
AAPTPAAPA [hu-wt-p53 78-86] | 0 |  | 
ITLEDSSGNL [hu-wt-p53 255-264] | 3 | lack of CTL responsiveness | A2.1-binding activity / affinity for the presenting MHC class I molecule (in words) (HLA-A2.1): intermediate
NTFRHSVVV [hu-wt-p53 210-218] | 6 |  | 
VLSPLPSQA [hu-wt-p53 31-39] | 3 |  | 
RMPEAAPPV [hu-wt-p53 65-73] | 85 | detectable | A2.1-binding activity / affinity for the presenting MHC class I molecule (in words) (HLA-A2.1): high affinity; recognition of Saos-2/175 by CTL from A2.1/K^b-Tg mice specific for the peptide (endogenous processing and presentation) (Saos-2/175): did not lyse Saos-2/175
LMLSPDDIEQ [hu-wt-p53 43-52] | 3 |  | 
LLGRNSFEV | 94 | detectable | 
SVTCTYSPA [hu-wt-p53 121-129] |  |  | A2.1-binding: inhibition of A2.1-binding of M1 (58-66) (%) (HLA-A2.1): 8%
AAPPVAPAPA [hu-wt-p53 69-78] | 0 |  | 
ILKEPVHGV [HIV-1 RT 476-484, reference compound] |  | could mount an A2.1/K^b-restricted CTL response | 
VLSPLPSQAM [hu-wt-p53 31-40] | 0 |  | 
KLVGKLNWA [HIV-9K, reference compound] |  |  | Killing of Tumors Expressing Her-2/neu (percent specific lysis) (CASKI): 8% and 11%; Killing of Tumors Expressing Her-2/neu (percent specific lysis) (Hep-G2): 1% and 8%; Killing of Tumors Expressing Her-2/neu (percent specific lysis) (JY): 2% and 1%; Killing of Tumors Expressing Her-2/neu (percent specific lysis) (LG-2): 1%; Killing of Tumors Expressing Her-2/neu (percent specific lysis) (MALME-3M): 2% and 1%; Killing of Tumors Expressing Her-2/neu (percent specific lysis) (MCF-7): 3% and 7%; Killing of Tumors Expressing Her-2/neu (percent specific lysis) (MDA.MB435): 4% and 3%; Killing of Tumors Expressing Her-2/neu (percent specific lysis) (OVCAR-5): 10% and 12%; Killing of Tumors Expressing Her-2/neu (percent specific lysis) (SAOS.175): 18% and 11%; Killing of Tumors Expressing Her-2/neu (percent specific lysis) (SKMEL-5): 5% and 4%; Killing of Tumors Expressing Her-2/neu (percent specific lysis) (ST486): 1%; Killing of Tumors Expressing Her-2/neu (percent specific lysis) (SV80): 2%; Killing of Tumors Expressing Her-2/neu (percent specific lysis) (SW480): 1% and 4%; Killing of Tumors Expressing Her-2/neu (percent specific lysis) (T98G): 9% and 13%; Killing of Tumors Expressing Her-2/neu (percent specific lysis) (U2-OS): 18% and 24%; Killing of Tumors Expressing Her-2/neu (percent specific lysis) (U87G): 5% and 1%
GLAPPQHLI [hu-wt-p53 187-195] | 1 | lack of CTL responsiveness | A2.1-binding activity / affinity for the presenting MHC class I molecule (in words) (HLA-A2.1): high
NLLGRNSFEV [hu-wt-p53 263-272] | 3 |  | 
PLDGEYFTL [hu-wt-p53 322-330] | 0 | lack of CTL responsiveness | A2.1-binding activity / affinity for the presenting MHC class I molecule (in words) (HLA-A2.1): intermediate
LLPENNVLS [hu-wt-p53 25-33] | 3 |  | 
DLMLSPDDI [hu-wt-p53 42-50] | 0 |  | 
ALNKMFCQL | 0 |  | 
VAPAPAAPT [hu-wt-p53 73-81] | 0 |  | 
AAPPVAPAPAA [hu-wt-p53 69-79] | 0 |  | 
LLGRDSFEV [mur-wt-p53 261-269, reference compound] | 10 | No significant response | A2.1-binding activity / affinity for the presenting MHC class I molecule (in words) (HLA-A2.1): highest A2.1-binding activity of all p53 peptides tested
AAPPVAPA [hu-wt-p53 69-76] | 0 |  | 
LLPENNVLSPL [hu-wt-p53 25-35] | 47 | detectable | A2.1-binding activity / affinity for the presenting MHC class I molecule (in words) (HLA-A2.1): high affinity; recognition of Saos-2/175 by CTL from A2.1/K^b-Tg mice specific for the peptide (endogenous processing and presentation) (Saos-2/175): did not lyse Saos-2/175
